Test results from patent publication US5747499A, “Anti-cancer compounds” (British Technology Group Limited, priority 1994, dated 1998).
Where two headings read alike, the source gives them in different places.

Assays:
[1] = target: T1, thymidylate synthase (Mus musculus, UniProt P07607); assay: Test (a): in vitro assay, inhibition of thymidylate synthase (partially purified from L1210 mouse leukaemia cells); assay type: biochemical
T1 construct: Thymidylate synthase may be obtained in partially purified form from L1210 mouse leukaemia cells; endogenous in cells; host or cells: L1210 mouse leukaemia cells
Description: (a) An in vitro assay which determines the ability of a test compound to inhibit the enzyme thymidylate synthase.

[2] = system: leukaemia cell line L1210; assay: Test (b): inhibition of growth of the leukaemia cell line L1210 in cell culture; assay type: cell-based; conditions: Mus musculus
Description: (b) An assay which determines the ability of a test compound to inhibit the growth of the leukaemia cell line L1210 in cell culture. The test may be similar to that described in UK Patent Specification No. 2065653B and has been described by Jones et al. (J. Med. Chem., 1985, 28, 1468);

[3] = system: human breast, ovarian and liver cancer; conditions: in vivo; cited from earlier work
[4] = Cancer Treatment Reports, 1986, 70, 1335; cited from earlier work
[5] = thymidylate synthase partially purified from L1210 mouse leukaemia cells, read-out: IC50 in test (a)

T1 sequence (P07607 whole entry): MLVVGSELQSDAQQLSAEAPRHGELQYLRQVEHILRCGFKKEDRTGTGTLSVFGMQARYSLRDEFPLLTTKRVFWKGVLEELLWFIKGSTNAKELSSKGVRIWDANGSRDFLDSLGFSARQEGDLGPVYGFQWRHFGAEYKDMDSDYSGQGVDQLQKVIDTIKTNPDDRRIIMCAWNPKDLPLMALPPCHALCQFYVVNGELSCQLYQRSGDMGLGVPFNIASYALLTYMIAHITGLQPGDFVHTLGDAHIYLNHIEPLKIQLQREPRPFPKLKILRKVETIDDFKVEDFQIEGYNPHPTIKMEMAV

IC50 [1, 5] [nM]	SMILES	IC50 [1] [nM]	IC50 [2] [nM]	activity against human breast, ovarian and liver cancer [3]	symptoms of toxicity in humans [4]
–	Cc1nc2cc3c(cc2c(=O)[nH]1)C(N(C)c1ccc(C(=O)N[C@H](C(=O)O)c2ccc(CC(=O)O)cc2)c(F)c1)CC3 (mixture of isomers) [Example 8, (2S)-2-{o-fluoro-p-[N-methyl-N-((6RS)-2-methyl-4-oxo-3,4,7,8-tetrahydro-6H-cyclopenta[g]quinazolin-6-yl)amino]benzamido}-2-[p-(carboxymethyl)phenyl]acetic acid]	7.6	–	–	–
–	Cc1nc2cc3c(cc2c(=O)[nH]1)C(N(C)c1ccc(C(=O)N[C@@H](CCc2nnn(CC(=O)O)n2)C(=O)O)c(F)c1)CC3 (mixture of isomers) [Example 10, (2S)-2-{o-Fluoro-p-[N-methyl-N-((6RS)-2-methyl-4-oxo-3,4,7,8-tetrahydro-6H-cyclopenta[g]quinazolin-6-yl)amino]benzamido}-4-(2-carboxymethyltetrazol-5-yl)-butyric acid]	8.8	1200	–	–
–	Cc1nc2cc3c(cc2c(=O)[nH]1)C(N(C)c1ccc(C(=O)N[C@@H](CCc2nnnn2CC(=O)O)C(=O)O)c(F)c1)CC3 (mixture of isomers) [Example 11, (2S)-2-{o-Fluoro-p-[N-methyl-N-((6RS)-2-methyl-4-oxo-3,4,7,8-tetrahydro-6H-cyclopenta[g]quinazolin-6-yl)amino]benzamido}-4-(1-carboxymethyltetrazol-5-yl)-butyric acid]	14.8	23000	–	–
–	Cc1nc2cc3c(cc2c(=O)[nH]1)[C@H](N(C)c1ccc(C(=O)N[C@@H](CCC(=O)N[C@@H](C(=O)O)c2ccc(CC(=O)O)cc2)C(=O)O)c(F)c1)CC3 (mixture of isomers) [Example 12, (2RS)-2-{N-{N-{o-Fluoro-p-[N-methyl-N-((6RS)-2-methyl-4-oxo-3,4,7,8-tetrahydro-6H-cyclopenta[g]quinazolin-6-yl)amino]benzoyl}-L-γ-glutamyl}amino}-2-[p-(carboxymethyl)phenyl]acetic acid]	4	3900	–	–
–	C#CCN(c1ccc(C(=O)N[C@@H](CCC(=O)N(C)[C@@H](CCC(=O)O)C(=O)O)C(=O)O)cc1)C1CCc2cc3nc(C)[nH]c(=O)c3cc21 (mixture of isomers) [Example 13, N-{p-[N-((6RS)-2-Methyl-4-oxo-3,4,7,8-tetrahydro-6H-cyclopenta[g]quinazolin-6-yl)-N-(prop-2-ynyl)amino]benzoyl}-L-γ-glutamyl-N-methyl-L-glutamic acid]	1.42	2300	–	–
–	C#CCN(c1ccc(C(=O)N[C@@H](CCc2nnnn2CCC(=O)O)C(=O)O)cc1)C1CCc2cc3nc(C)[nH]c(=O)c3cc21 (mixture of isomers) [Example 14, (2S)-2-{p-[N-((6RS)-2-methyl-4-oxo-3,4,7,8-tetrahydro-6H-cyclopenta[g]quinazolin-6-yl)-N-(prop-2-ynyl)amino]benzamido}-4-[1-(2-carboxyethyl)tetrazol-5-yl]butyric acid]	1.84	630	–	–
1.08	C#CCN(c1ccc(C(=O)N[C@@H](CCC(=O)N[C@@H](CCc2nnnn2CC(=O)O)C(=O)O)C(=O)O)cc1)C1CCc2cc3nc(C)[nH]c(=O)c3cc21 (mixture of isomers) [Example 15, (2S)-2-{N-{N-{p-[N-((6RS)-2-Methyl-4-oxo-3,4,7,8-tetrahydro-6H-cyclopenta[g]quinazolin-6-yl)-N-(prop-2-ynyl)amino]benzoyl}-L-γ-glutamyl}amino}-4-(1-carboxymethyltetrazol-5-yl)butyric acid]	–	7200	–	–
1.58	C#CCN(c1ccc(C(=O)N[C@@H](CCCS(=O)(=O)c2nnc[nH]2)C(=O)O)cc1)C1CCc2cc3nc(C)[nH]c(=O)c3cc21 (mixture of isomers) [Example 17, (2S)-2-{p-[N-((6RS)-2-methyl-4-oxo-3,4,7,8-tetrahydro-6H-cyclopenta[g]quinazolin-6-yl)-N-(prop-2-ynyl)amino]benzamido}-5-(1H-1,2,4-triazol-3-ylsulphonyl)pentanoic acid]	–	250	–	–
–	C#CCN(c1ccc(C(=O)N[C@@H](CCC(=O)N[C@H](CCC(=O)O)c2nnn[nH]2)C(=O)O)cc1)C1CCc2cc3nc(C)[nH]c(=O)c3cc21 (mixture of isomers) [Example 18, (4R)-4-{N-{N-{p-[N-((6RS)-2-Methyl-4-oxo-3,4,7,8-tetrahydro-6H-cyclopenta[g]quinazolin-6-yl)-N-(prop-2-ynyl)amino]benzoyl}-L-γ-glutamyl}amino}-4-(tetrazol-5-yl)butyric acid]	1.08	860	–	–
1.84	C#CCN(c1ccc(C(=O)N[C@@H](CCC(=O)N[C@H](C)C(=O)O)C(=O)O)cc1)C1CCc2cc3nc(C)nc(O)c3cc21 (mixture of isomers) [Example 19, N-{N-{p-[N-((6RS)-2-methyl-4-oxo-3,4,7,8-tetrahydro-6H-cyclopenta[g]quinazolin-6-yl)-N-(prop-2-ynyl)amino]benzoyl}-L-γ-glutamyl}-D-alanine]	–	520	–	–
–	C#CCN(Cc1ccc2nc(N)[nH]c(=O)c2c1)c1ccc(C(=O)N[C@@H](CCC(=O)O)C(=O)O)cc1 [CB3717]	–	–	promising activity against human breast, ovarian and liver cancer	shows symptoms of toxicity in humans, particularly in relation to the liver and kidneys
–	C#CCN(c1ccc(C(=O)N[C@@H](CCc2nnnn2CC(=O)N[C@H](C)C(=O)O)C(=O)O)cc1)C1CCc2cc3nc(C)nc(O)c3cc21 (some centres unmarked) [Example 16]	3.4	10000	–	–
